{"source": "patent US8940325B2", "about": "“Use of synthetic polysulphated oligosaccharides as cleaning agents for a wound” (Laboratories Urgo, priority 2010, dated 2015)", "biological_target": "T1, fibrin matrix (Homo sapiens, UniProt P02671+P02675+P02679)", "T1 construct": "15 mg of human plasma fibrinogen (Sigma-Aldrich Catalog); purchased Sigma-Aldrich; host or cells: human plasma", "T1 sequence (P02671 20-644 isoform P02671-2 limits assumed)": "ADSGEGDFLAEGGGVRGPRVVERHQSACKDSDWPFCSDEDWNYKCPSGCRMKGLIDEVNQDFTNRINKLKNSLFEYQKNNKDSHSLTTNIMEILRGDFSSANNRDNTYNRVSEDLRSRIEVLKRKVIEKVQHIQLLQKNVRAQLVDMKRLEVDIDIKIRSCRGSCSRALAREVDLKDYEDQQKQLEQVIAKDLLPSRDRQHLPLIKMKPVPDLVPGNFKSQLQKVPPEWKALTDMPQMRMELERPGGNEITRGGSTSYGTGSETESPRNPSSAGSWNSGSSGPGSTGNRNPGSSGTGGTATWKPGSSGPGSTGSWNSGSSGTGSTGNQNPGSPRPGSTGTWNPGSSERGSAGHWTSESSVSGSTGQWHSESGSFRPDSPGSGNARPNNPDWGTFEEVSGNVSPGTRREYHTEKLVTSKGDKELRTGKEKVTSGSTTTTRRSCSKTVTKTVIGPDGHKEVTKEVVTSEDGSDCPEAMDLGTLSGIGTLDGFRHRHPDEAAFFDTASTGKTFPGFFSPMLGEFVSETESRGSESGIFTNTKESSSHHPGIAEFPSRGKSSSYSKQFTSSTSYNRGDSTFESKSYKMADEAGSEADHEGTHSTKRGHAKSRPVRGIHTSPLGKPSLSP", "T1 sequence (P02675 45-491 limits assumed)": "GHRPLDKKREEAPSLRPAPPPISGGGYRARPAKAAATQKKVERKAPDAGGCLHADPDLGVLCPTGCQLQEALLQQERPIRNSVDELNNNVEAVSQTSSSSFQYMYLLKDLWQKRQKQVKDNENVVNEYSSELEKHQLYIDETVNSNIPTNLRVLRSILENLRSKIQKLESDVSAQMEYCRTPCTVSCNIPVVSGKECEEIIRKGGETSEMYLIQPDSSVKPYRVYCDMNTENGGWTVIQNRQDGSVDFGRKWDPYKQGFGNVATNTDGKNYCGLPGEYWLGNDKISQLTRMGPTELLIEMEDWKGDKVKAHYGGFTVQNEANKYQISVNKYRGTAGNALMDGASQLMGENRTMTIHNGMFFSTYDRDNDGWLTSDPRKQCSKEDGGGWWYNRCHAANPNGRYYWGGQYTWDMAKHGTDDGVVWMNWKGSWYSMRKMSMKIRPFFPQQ", "T1 sequence (P02679 27-437 isoform P02679-2 limits assumed)": "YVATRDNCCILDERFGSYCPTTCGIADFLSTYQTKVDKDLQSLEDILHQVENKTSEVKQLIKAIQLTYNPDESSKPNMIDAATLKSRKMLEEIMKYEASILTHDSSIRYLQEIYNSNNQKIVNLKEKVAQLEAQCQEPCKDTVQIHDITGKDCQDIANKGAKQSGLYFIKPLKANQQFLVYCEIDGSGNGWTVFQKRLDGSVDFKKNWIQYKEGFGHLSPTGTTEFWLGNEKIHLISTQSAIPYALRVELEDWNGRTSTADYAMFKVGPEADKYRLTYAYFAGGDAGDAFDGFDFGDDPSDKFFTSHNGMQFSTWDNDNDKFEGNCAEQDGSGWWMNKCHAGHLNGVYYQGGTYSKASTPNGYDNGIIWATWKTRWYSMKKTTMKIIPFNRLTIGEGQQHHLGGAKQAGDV", "assay": "Degradation of fibrin matrix prepared in vitro (visual observation and PDF determination)", "assay_type": "biochemical", "conditions": "solution at 10 g/l, 48 hours", "protocol": "The fibrin matrices were prepared according to Brown's protocol described in the work “Fibroblast migration in fibrin gel matrices” Am J. Pathol, 1993, 142: 273-283.\nThe following were dissolved at 37° C.: • 5 ml of an aqueous solution comprising 50 millimoles of Hepes (Sigma-Aldrich Catalog) • 15 mg of human plasma fibrinogen (Sigma-Aldrich Catalog) • 5 millimoles of CaCl2.\n50 μl of thrombin, 100 NIH of human plasma (Sigma-Aldrich Catalog) were added to the solution thus prepared.\nThe reaction mixture was mixed, put in a 15-ml tube (or a Petri dish of 60 mm diameter) and then left to incubate at 37° C.\nDuring the first 24 hours of incubation at 37° C., a fibrin matrix which has roughly the appearance of a gel was seen to appear.\nIn parallel, a control solution was prepared free from the test compound with phosphate-buffered saline (PBS).\nThe degradation of the fibrin matrix was monitored visually over the next 24 and 48 hours. […]\nIn order to quantify and verify that the observations made do indeed correspond to degradation of the fibrin matrix, the products of degradation of fibrin (PDFs) were determined 24 hours or 48 hours after adding the solutions of the test compound. […]\nThis solution was tested according to the protocol described above and the PDFs were measured 48 hours after adding the solution to the fibrin matrix. […]"}
{"compound": "O=S(=O)([O-])OC[C@H]1O[C@@](COS(=O)(=O)[O-])(O[C@H]2O[C@H](COS(=O)(=O)[O-])[C@@H](OS(=O)(=O)[O-])[C@H](OS(=O)(=O)[O-])[C@H]2OS(=O)(=O)[O-])[C@@H](OS(=O)(=O)[O-])[C@@H]1OS(=O)(=O)[O-].[K+].[K+].[K+].[K+].[K+].[K+].[K+].[K+]", "note": "[potassium salt of sucrose octasulfate]", "values": [{"measurement": "degradation of the fibrin matrix (level)", "value": "partial degradation (if the value of the PDFs, expressed in μg/ml, is between 5 and 20, there is partial degradation of the fibrin matrix)"}]}
